Results published in patent US20240246932A1 (Merck Sharp & Dohme LLC, priority 2021, published 2024).

Biological target: human NaV 1.8 channels stably expressed in HEK 293 cells (Homo sapiens (Human), UniProt Q9Y5Y9)
Test: Nav1.8 Qube automated patch-clamp assay
Format: cell-based
Conditions: human NaV1.8 in HEK 293 cells, whole-cell voltage clamp, room temperature; read-out: IC50 values (nM) for Examples in the Nav1.8 Qube Assay
In short: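 Whole-cell voltage clamp at room temperature on HEK293 cells; from −90 mV, a 10 s 1 Hz train of 20 ms pulses to 10 mV (repolarising to −67 mV) was applied. Peak currents at pulses 1 and 10 gave resting- and inactivated-state inhibition; IC50 fitted by Hill equation. Internal CsF/CsCl buffer.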

Sequence of human NaV 1.8 channels stably expressed in HEK 293 cells (Q9Y5Y9 whole entry): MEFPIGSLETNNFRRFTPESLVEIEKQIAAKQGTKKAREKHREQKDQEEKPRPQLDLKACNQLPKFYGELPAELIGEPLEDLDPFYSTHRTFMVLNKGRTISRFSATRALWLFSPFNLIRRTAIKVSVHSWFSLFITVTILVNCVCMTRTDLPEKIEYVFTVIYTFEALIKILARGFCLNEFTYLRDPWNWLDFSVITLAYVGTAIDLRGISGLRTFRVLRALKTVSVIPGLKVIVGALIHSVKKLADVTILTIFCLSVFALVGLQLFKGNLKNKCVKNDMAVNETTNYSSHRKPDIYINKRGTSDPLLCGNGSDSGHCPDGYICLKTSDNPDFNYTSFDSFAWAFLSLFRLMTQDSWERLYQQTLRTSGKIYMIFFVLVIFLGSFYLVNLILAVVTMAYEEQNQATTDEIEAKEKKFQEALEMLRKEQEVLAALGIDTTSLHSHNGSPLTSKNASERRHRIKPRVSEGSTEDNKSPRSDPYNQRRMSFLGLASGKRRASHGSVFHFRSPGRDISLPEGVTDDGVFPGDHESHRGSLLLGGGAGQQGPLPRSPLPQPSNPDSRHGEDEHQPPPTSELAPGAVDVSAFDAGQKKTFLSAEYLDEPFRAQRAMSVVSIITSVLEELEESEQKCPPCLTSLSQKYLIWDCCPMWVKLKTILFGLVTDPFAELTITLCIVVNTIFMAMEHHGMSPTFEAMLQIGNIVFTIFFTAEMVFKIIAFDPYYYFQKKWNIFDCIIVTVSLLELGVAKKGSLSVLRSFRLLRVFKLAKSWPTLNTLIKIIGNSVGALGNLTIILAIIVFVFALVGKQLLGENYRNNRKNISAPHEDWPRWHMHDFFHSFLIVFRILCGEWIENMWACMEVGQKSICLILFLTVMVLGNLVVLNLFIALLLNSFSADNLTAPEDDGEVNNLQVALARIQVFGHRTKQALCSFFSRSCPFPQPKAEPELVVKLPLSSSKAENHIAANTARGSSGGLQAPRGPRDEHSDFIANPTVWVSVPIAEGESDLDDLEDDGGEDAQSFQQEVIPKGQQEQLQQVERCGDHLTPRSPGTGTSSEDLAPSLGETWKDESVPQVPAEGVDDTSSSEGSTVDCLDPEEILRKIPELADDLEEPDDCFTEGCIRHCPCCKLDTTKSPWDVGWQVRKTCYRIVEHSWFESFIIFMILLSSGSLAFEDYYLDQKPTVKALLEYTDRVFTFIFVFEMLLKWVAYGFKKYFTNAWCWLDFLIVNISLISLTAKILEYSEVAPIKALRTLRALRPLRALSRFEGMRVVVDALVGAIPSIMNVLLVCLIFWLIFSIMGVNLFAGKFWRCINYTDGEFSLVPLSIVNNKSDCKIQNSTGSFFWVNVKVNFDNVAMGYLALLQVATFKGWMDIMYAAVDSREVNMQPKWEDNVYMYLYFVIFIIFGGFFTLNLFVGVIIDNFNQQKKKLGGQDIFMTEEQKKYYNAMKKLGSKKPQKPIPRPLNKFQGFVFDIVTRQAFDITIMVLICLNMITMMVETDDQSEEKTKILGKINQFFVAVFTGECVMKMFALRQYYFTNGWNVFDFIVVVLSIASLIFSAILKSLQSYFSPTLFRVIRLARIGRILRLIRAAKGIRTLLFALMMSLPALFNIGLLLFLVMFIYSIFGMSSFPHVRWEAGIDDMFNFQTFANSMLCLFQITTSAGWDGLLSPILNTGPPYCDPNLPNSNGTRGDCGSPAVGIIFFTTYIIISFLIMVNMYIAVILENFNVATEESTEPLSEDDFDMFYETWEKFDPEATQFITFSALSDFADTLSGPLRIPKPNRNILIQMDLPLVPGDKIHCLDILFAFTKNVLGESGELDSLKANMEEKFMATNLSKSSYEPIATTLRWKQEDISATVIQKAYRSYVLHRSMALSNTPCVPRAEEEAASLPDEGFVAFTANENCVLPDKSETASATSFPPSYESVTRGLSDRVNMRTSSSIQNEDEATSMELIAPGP

In the case of `C[C@@H]1C(=O)NCCN1C(=O)NC(c1ccc(OCC(F)(F)F)nc1)c1ccc(F)c(Cl)c1` (single isomer, unassigned) [Example 3A, (2R)-N-((R or S)-(3-chloro-4-fluorophenyl)(6-(2,2,2-trifluoro-ethoxy)pyridin-3-yl)methyl)-2-methyl-3-oxopiperazine-1-carboxamide], the IC50 is reported as 2.22 nM.
`C[C@@H]1C(=O)NCCN1C(=O)NC(c1ccc(OC2CC2)c(F)c1)c1ccc(F)c(C(F)(F)F)n1` (single isomer, unassigned) [Example 59A, (2R)-N-((R or S)-(4-cyclopropoxy-3-fluorophenyl)(5-fluoro-6-(trifluoromethyl)pyridin-2-yl)methyl)-2-methyl-3-oxopiperazine-1-carboxamide] was tested, and the IC50 was 3.33 nM.
`C[C@@H]1C(=O)NCCN1C(=O)NC(c1ccc(C(F)F)nc1)c1ccc(F)c(Cl)c1F` (single isomer, unassigned) [Example 32B, (2R)-N-((s or R)-(3-chloro-2,4-difluoro-phenyl)(6-(difluoro-methyl)pyridin-3-yl)methyl)-2-methyl-3-oxopiperazine-1-carboxamide] gave an IC50 of 13 nM.
